Measurements: patent US20250281495A1, “METHODS FOR INHIBITING INFLAMMATION AND PROGRESSION OF ATHEROSCLEROTIC PLAQUES AND CARDIOVASCULAR EVENTS IN PATIENTS WITH CEREBRO- AND CARDIO-VASCULAR DISEASE” (ICAHN SCHOOL OF MEDICINE AT MOUNT SINAI, priority 2021, published 2025)

System: kinase phosphorylation (pCREB, pp38, pMAPKA2P, pS6, pERK1/2) in PBMCs
Experiment: CyTOF screening of candidate small molecules in healthy PBMCs stimulated with atherosclerotic plasma
Format: cell-based, human
Details: for reversal of the inflammatory signature activated by atherosclerotic plasma: CyTOF screening
Experimental: To test the efficacy of candidate small molecules in reversing immune response of PBMCs to atherosclerotic plasma, the inventors examined cell type-specific pharmacologic effects of selected candidate compounds. Using healthy PBMCs, the inventors assessed the activity of selected small molecules in the presence of atherosclerotic plasma stimulation that followed 30 minutes of pretreatment with each candidate compounds. Using CyTOF mass-cytometry, the inventors measured the specific inhibition of kinase phosphorylation (i.e., pCREB, pp38, pMAPKA2P, pS6, pERK1/2) in each cell type at the single cell level for each drug (FIGS. 8 and 9).

[1] = CD14+ and CD16+ monocytes and CD1c+ DC (these cells)
[2] = CD14+ and CD16+ monocytes and CD1c+ DC, atherosclerotic plasma
[3] = CD16+ monocytes and CD1c+ DC, atherosclerotic plasma

SMILES	ERK1/2 phosphorylation in response to atherosclerosis plasma [1]	p38 phosphorylation in response to atherosclerosis plasma [1]	CREB phosphorylation [2]	S6 phosphorylation [2]	MAPKA2P phosphorylation [3]	reversal of the inflammatory signature activated by atherosclerotic plasma	inhibition of most specific kinase phosphorylation activated by atherosclerosis plasma (cell-specificity for monocytes and CD1c+ DC, 30 minutes of pretreatment)	p38 phosphorylation (CD1c+ DC, atherosclerotic plasma)	ERK1/2 phosphorylation [3]	phosphorylation of major kinases (e.g., CREB and S6) implicated in the inflammatory transcriptional reprogramming (atherosclerotic plasma)
CS(=O)(=O)O.Cn1cc(C2=C(c3cn(CCCSC(=N)N)c4ccccc34)C(=O)NC2=O)c2ccccc21 [Ro 31-8220 mesylate]	not inhibited	not inhibited	significant inhibition	significant inhibition	significant inhibition	reversed	significant inhibition			
CC[C@H](C)C(=O)O[C@H]1CCC=C2C=C[C@H](C)[C@H](CC[C@@H]3C[C@@H](O)CC(=O)O3)[C@H]21 [Mevastatin]						did not fully reverse		inhibited	inhibited	did not affect
